Paper PMC5218480 (PLoS ONE, 2017)

System: MV-4-11 cells
Experiment: Gene expression microarray analysis (Affymetrix PrimeView) and GSEA
Assay type: cell-based, human
Parameters: RFU PODN (11730768_x_at) / Fold change /veh PODN (11730768_x_at) / RFU LINC00158 (11744669_a_at) / Fold change /veh LINC00158 (11744669_a_at) / RFU DUSP10 (11751237_a_at) / Fold change /veh DUSP10 (11751237_a_at) / RFU ID3 (11757404_x_at) / Fold change /veh ID3 (11757404_x_at) / RFU PLEKHG5 (11737974_s_at) / Fold change /veh PLEKHG5 (11737974_s_at) / RFU LRRC4B (11730491_at) / Fold change /veh LRRC4B (11730491_at) / RFU GIMAP4 (11747438_a_at) / Fold change /veh GIMAP4 (11747438_a_at) / RFU KRT8 (11758183_x_at) / Fold change /veh KRT8 (11758183_x_at) / RFU CNN1 (11734310_a_at) / Fold change /veh CNN1 (11734310_a_at) / RFU VPS37D (11726825_at) / Fold change /veh VPS37D (11726825_at) / RFU C10orf10 (11716522_x_at) / Fold change /veh C10orf10 (11716522_x_at) / RFU KIR2DL2 /// KIR2DL4 /// KIR2DL5A /// KIR2DL5B /// KIR2DS1 /// KIR2DS2 /// KIR2DS3 /// KIR2DS4 /// KIR3DL3 /// KIR3DL3 /// KIR3DS1 (11738374_at) / Fold change /veh KIR2DL2 /// KIR2DL4 /// KIR2DL5A /// KIR2DL5B /// KIR2DS1 /// KIR2DS2 /// KIR2DS3 /// KIR2DS4 /// KIR3DL3 /// KIR3DL3 /// KIR3DS1 (11738374_at) / RFU C1QL1 (11718748_at) / Fold change /veh C1QL1 (11718748_at) / RFU TMPRSS4 (11747572_a_at) / Fold change /veh TMPRSS4 (11747572_a_at) / RFU HAMP (11756126_x_at) / Fold change /veh HAMP (11756126_x_at) / RFU RNFT2 (11725882_a_at) / Fold change /veh RNFT2 (11725882_a_at) / RFU NR4A2 (11747474_a_at) / Fold change /veh NR4A2 (11747474_a_at) / RFU ABCC12 (11746883_a_at) / Fold change /veh ABCC12 (11746883_a_at) / RFU TMEM136 (11760407_x_at) / Fold change /veh TMEM136 (11760407_x_at) / RFU CLDN22 /// WWC2 (11732394_at) / Fold change /veh CLDN22 /// WWC2 (11732394_at) / RFU HLA-DPB1 (11760878_x_at) / Fold change /veh HLA-DPB1 (11760878_x_at) / RFU SPINT1 (11716480_a_at) / Fold change /veh SPINT1 (11716480_a_at) / RFU GAP43 (11754022_s_at) / Fold change /veh GAP43 (11754022_s_at) / RFU A4GNT (11735810_at) / Fold change /veh A4GNT (11735810_at) / RFU PRB3 (11715151_x_at) / Fold change /veh PRB3 (11715151_x_at) / RFU TUBB4B (11761932_at) / Fold change /veh TUBB4B (11761932_at) / RFU CAPN14 (11732068_a_at) / Fold change /veh CAPN14 (11732068_a_at) / RFU TMCC2 (11721928_a_at) / Fold change /veh TMCC2 (11721928_a_at) / RFU IRGQ (11745062_a_at) / Fold change /veh IRGQ (11745062_a_at) / RFU FAM174B (11720279_a_at) / Fold change /veh FAM174B (11720279_a_at) / RFU TMPRSS4 (11748680_a_at) / Fold change /veh TMPRSS4 (11748680_a_at) / RFU FAM212B (11763350_a_at) / Fold change /veh FAM212B (11763350_a_at) / RFU PLEKHG5 (11743358_a_at) / Fold change /veh PLEKHG5 (11743358_a_at) / RFU ZSCAN30 (11745921_a_at) / Fold change /veh ZSCAN30 (11745921_a_at) / RFU CMKLR1 (11741424_a_at) / Fold change /veh CMKLR1 (11741424_a_at) / RFU LOC101060620 /// MAPK8IP1 (11723275_at) / Fold change /veh LOC101060620 /// MAPK8IP1 (11723275_at) / RFU SPTSSB (11747773_x_at) / Fold change /veh SPTSSB (11747773_x_at) / RFU PRSS12 (11739890_at) / Fold change /veh PRSS12 (11739890_at) / RFU BIN1 (11741810_x_at) / Fold change /veh BIN1 (11741810_x_at) / RFU WNT11 (11732464_a_at) / Fold change /veh WNT11 (11732464_a_at) / RFU C10orf10 (11716521_a_at) / Fold change /veh C10orf10 (11716521_a_at) / RFU C5orf56 (11738089_at) / Fold change /veh C5orf56 (11738089_at) / RFU CYB561 (11721691_x_at) / Fold change /veh CYB561 (11721691_x_at) / RFU ANKRD19P (11752326_a_at) / Fold change /veh ANKRD19P (11752326_a_at) / RFU OR2T12 /// OR2T33 /// OR2T8 (11738714_s_at) / Fold change /veh OR2T12 /// OR2T33 /// OR2T8 (11738714_s_at) / RFU VCAN (11748164_a_at) / Fold change /veh VCAN (11748164_a_at) / RFU JSRP1 (11732532_at) / Fold change /veh JSRP1 (11732532_at) / RFU KRTAP10-11 (11738290_x_at) / Fold change /veh KRTAP10-11 (11738290_x_at) / RFU MYO3A (11730013_a_at) / Fold change /veh MYO3A (11730013_a_at) / RFU EBF3 (11725865_a_at) / Fold change /veh EBF3 (11725865_a_at) / RFU CAMK2N1 (11719241_x_at) / Fold change /veh CAMK2N1 (11719241_x_at) / RFU C5orf56 (11738088_a_at) / Fold change /veh C5orf56 (11738088_a_at) / RFU OLFML3 (11715873_a_at) / Fold change /veh OLFML3 (11715873_a_at) / RFU LOC100653217 /// NTM (11731650_a_at) / Fold change /veh LOC100653217 /// NTM (11731650_a_at) / RFU MAPK11 (11762145_a_at) / Fold change /veh MAPK11 (11762145_a_at) / RFU FIZ1 (11724087_x_at) / Fold change /veh FIZ1 (11724087_x_at) / RFU OASL (11726364_x_at) / Fold change /veh OASL (11726364_x_at) / RFU SOX15 (11748057_x_at) / Fold change /veh SOX15 (11748057_x_at) / RFU CD79A (11719716_a_at) / Fold change /veh CD79A (11719716_a_at) / RFU HIST1H1D (11736915_at) / Fold change /veh HIST1H1D (11736915_at) / RFU CASKIN2 (11723855_a_at) / Fold change /veh CASKIN2 (11723855_a_at) / RFU LOC730098 (11760151_x_at) / Fold change /veh LOC730098 (11760151_x_at) / RFU OR4N2 (11742367_at) / Fold change /veh OR4N2 (11742367_at) / RFU PRRT2 (11749266_a_at) / Fold change /veh PRRT2 (11749266_a_at) / RFU SNX32 (11753110_a_at) / Fold change /veh SNX32 (11753110_a_at) / RFU CDHR5 (11726645_a_at) / Fold change /veh CDHR5 (11726645_a_at) / RFU RCAN1 (11760418_a_at) / Fold change /veh RCAN1 (11760418_a_at) / RFU FAM167A (11723789_a_at) / Fold change /veh FAM167A (11723789_a_at) / RFU FAM26E (11764081_at) / Fold change /veh FAM26E (11764081_at) / RFU ISYNA1 (11749810_s_at) / Fold change /veh ISYNA1 (11749810_s_at) / RFU ACY1 (11761880_at) / Fold change /veh ACY1 (11761880_at) / RFU 11764098_at / Fold change /veh 11764098_at / RFU SAMD14 (11745864_x_at) / Fold change /veh SAMD14 (11745864_x_at) / RFU NPB (11741838_a_at) / Fold change /veh NPB (11741838_a_at) / RFU TMPRSS6 (11731388_a_at) / Fold change /veh TMPRSS6 (11731388_a_at) / RFU KRTAP10-2 (11738614_at) / Fold change /veh KRTAP10-2 (11738614_at) / RFU ARHGAP8 /// PRR5-ARHGAP8 (11727945_x_at) / Fold change /veh ARHGAP8 /// PRR5-ARHGAP8 (11727945_x_at) / RFU KRTAP5-7 /// NADSYN1 (11734609_at) / Fold change /veh KRTAP5-7 /// NADSYN1 (11734609_at) / RFU RASL12 (11751679_a_at) / Fold change /veh RASL12 (11751679_a_at) / RFU CDKN2B (11736163_a_at) / Fold change /veh CDKN2B (11736163_a_at) / RFU PRF1 (11729649_at) / Fold change /veh PRF1 (11729649_at) / RFU, ZNF638 /// ZNF638-IT1 / Fold change vs veh, ZNF638 /// ZNF638-IT1 / RFU, PANK3 / Fold change vs veh, PANK3 / RFU, SH3YL1 / Fold change vs veh, SH3YL1 / RFU, ZEB2 / Fold change vs veh, ZEB2 / RFU, NRIP1 / Fold change vs veh, NRIP1 / RFU, PTTG1IP / Fold change vs veh, PTTG1IP / RFU, CAPN2 / Fold change vs veh, CAPN2 / RFU, MED14 / Fold change vs veh, MED14 / RFU, SNORA58 / Fold change vs veh, SNORA58 / RFU, C1orf63 / Fold change vs veh, C1orf63 / RFU, LRRFIP1 / Fold change vs veh, LRRFIP1 / RFU, NDUFAF7 / Fold change vs veh, NDUFAF7 / RFU, SLC12A2 / Fold change vs veh, SLC12A2 / RFU, IBTK / Fold change vs veh, IBTK / RFU, ESF1 / Fold change vs veh, ESF1 / Fold change vs veh, TMEM50B / RFU, TAOK1 / Fold change vs veh, TAOK1 / RFU, ACBD3 / Fold change vs veh, ACBD3 / RFU, TMA16 / Fold change vs veh, TMA16 / RFU, RWDD3 / Fold change vs veh, RWDD3 / RFU, BCAT1 / Fold change vs veh, BCAT1 / RFU, EDEM3 / Fold change vs veh, EDEM3 / RFU, TMEM33 / Fold change vs veh, TMEM33 / RFU, WDR75 / Fold change vs veh, WDR75 / RFU, AHCTF1 / Fold change vs veh, AHCTF1 / RFU, TFRC / Fold change vs veh, TFRC / RFU, ZDHHC17 / Fold change vs veh, ZDHHC17 / RFU, NOM1 / Fold change vs veh, NOM1 / RFU, ARL8B / Fold change vs veh, ARL8B / RFU, ZBTB11 / Fold change vs veh, ZBTB11 / RFU, TAMM41 / Fold change vs veh, TAMM41 / RFU, KIAA1704 /// LOC100996395 / Fold change vs veh, KIAA1704 /// LOC100996395 / RFU, ING1 / Fold change vs veh, ING1 / RFU, TRMT61B / Fold change vs veh, TRMT61B / RFU, FUBP3 / Fold change vs veh, FUBP3 / RFU, TP53 / Fold change vs veh, TP53 / RFU, TNKS2 / Fold change vs veh, TNKS2 / RFU, ZFP14 / Fold change vs veh, ZFP14 / RFU, ACTR2 / Fold change vs veh, ACTR2 / RFU, PPP3R1 / Fold change vs veh, PPP3R1 / RFU, PIK3R1 / Fold change vs veh, PIK3R1 / RFU, HNRNPA1 / Fold change vs veh, HNRNPA1 / RFU, RNF170 / Fold change vs veh, RNF170 / RFU, ZNF28 / Fold change vs veh, ZNF28 / RFU, RNGTT / Fold change vs veh, RNGTT / RFU, OGT / Fold change vs veh, OGT / RFU, BRD1 / Fold change vs veh, BRD1 / RFU, MARS / Fold change vs veh, MARS / RFU, ZNF655 / Fold change vs veh, ZNF655 / RFU, FAHD1 / Fold change vs veh, FAHD1 / RFU, BDP1 / Fold change vs veh, BDP1 / RFU, LRRCC1 / Fold change vs veh, LRRCC1 / RFU, ARID1A / Fold change vs veh, ARID1A / RFU, ZNF146 / Fold change vs veh, ZNF146 / RFU, ZNF330 / Fold change vs veh, ZNF330 / RFU, GPN3 / Fold change vs veh, GPN3 / RFU, C9orf123 / Fold change vs veh, C9orf123 / RFU, N4BP2L2 / Fold change vs veh, N4BP2L2 / RFU, ARFIP1 / Fold change vs veh, ARFIP1 / RFU, FAM179B / Fold change vs veh, FAM179B / RFU, BCL10 / Fold change vs veh, BCL10 / RFU, UHRF1BP1L / Fold change vs veh, UHRF1BP1L / RFU, BET1 / Fold change vs veh, BET1 / RFU, CNOT2 / Fold change vs veh, CNOT2 / RFU, ZNF268 / Fold change vs veh, ZNF268 / Fold change vs veh, ZNF507 / RFU, DGCR2 / Fold change vs veh, DGCR2 / RFU, WDSUB1 / Fold change vs veh, WDSUB1 / Fold change vs veh, HSP90B1 /// MIR3652 / RFU, ADSS / Fold change vs veh, ADSS / RFU, GK / Fold change vs veh, GK / RFU, ZNF148 / Fold change vs veh, ZNF148 / RFU, TAF9 / Fold change vs veh, TAF9 / RFU, SLC1A5 / Fold change vs veh, SLC1A5 / RFU, SLMO2 / Fold change vs veh, SLMO2 / RFU, ABCC4 / Fold change vs veh, ABCC4 / RFU, LOC101060439 /// RAP1B / Fold change vs veh, LOC101060439 /// RAP1B / RFU, RFX7 / Fold change vs veh, RFX7 / RFU, GTPBP10 / Fold change vs veh, GTPBP10 / RFU, CNEP1R1 / Fold change vs veh, CNEP1R1 / RFU, BIVM-ERCC5 /// ERCC5 / Fold change vs veh, BIVM-ERCC5 /// ERCC5 / RFU, ILF3 / Fold change vs veh, ILF3 / RFU 11762660_at / Fold change /veh 11762660_at / RFU VCAN (11757783_s_at) / Fold change /veh VCAN (11757783_s_at) / RFU DDX43 (11728927_at) / Fold change /veh DDX43 (11728927_at) / RFU KRT8 (11758188_x_at) / Fold change /veh KRT8 (11758188_x_at) / RFU NKD1 (11759106_at) / Fold change /veh NKD1 (11759106_at) / RFU SRD5A1 (11742802_a_at) / Fold change /veh SRD5A1 (11742802_a_at) / RFU TPSAB1 /// TPSB2 (11721975_s_at) / Fold change /veh TPSAB1 /// TPSB2 (11721975_s_at) / RFU GSTM3 (11746129_a_at) / Fold change /veh GSTM3 (11746129_a_at) / RFU IL23R (11737362_x_at) / Fold change /veh IL23R (11737362_x_at) / RFU TMEM51 (11727254_a_at) / Fold change /veh TMEM51 (11727254_a_at) / RFU PIWIL2 (11732686_x_at) / Fold change /veh PIWIL2 (11732686_x_at) / RFU ORM1 (11744905_x_at) / Fold change /veh ORM1 (11744905_x_at) / RFU CCDC152 (11743942_at) / Fold change /veh CCDC152 (11743942_at) / RFU ECM1 (11717891_a_at) / Fold change /veh ECM1 (11717891_a_at) / RFU IL23R (11748794_a_at) / Fold change /veh IL23R (11748794_a_at) / RFU TNFAIP8L3 (11732012_x_at) / Fold change /veh TNFAIP8L3 (11732012_x_at) / RFU MBOAT4 (11741988_at) / Fold change /veh MBOAT4 (11741988_at) / RFU 11764193_at / Fold change /veh 11764193_at / RFU TMEM53 (11763286_at) / Fold change /veh TMEM53 (11763286_at) / RFU MAGEB2 (11727129_at) / Fold change /veh MAGEB2 (11727129_at) / RFU TMEM200A (11744735_a_at) / Fold change /veh TMEM200A (11744735_a_at) / RFU CCDC152 (11751479_a_at) / Fold change /veh CCDC152 (11751479_a_at) / RFU FAM211A (11726209_a_at) / Fold change /veh FAM211A (11726209_a_at) / RFU RGS16 (11746705_a_at) / Fold change /veh RGS16 (11746705_a_at) / RFU VCAN (11755009_s_at) / Fold change /veh VCAN (11755009_s_at) / RFU RHOB (11743442_s_at) / Fold change /veh RHOB (11743442_s_at) / RFU RGS16 (11720943_a_at) / Fold change /veh RGS16 (11720943_a_at) / RFU RGS16 (11720944_at) / Fold change /veh RGS16 (11720944_at) / RFU, VPS4B / Fold change vs veh, VPS4B / RFU, CREB1 / Fold change vs veh, CREB1 / RFU, DNAJC13 / Fold change vs veh, DNAJC13 / RFU, GNAQ / Fold change vs veh, GNAQ / RFU, CDK5R1 / Fold change vs veh, CDK5R1 / RFU, ZRANB3 / Fold change vs veh, ZRANB3 / RFU, CUL4A / Fold change vs veh, CUL4A / RFU, CCNY / Fold change vs veh, CCNY / RFU, UFL1 / Fold change vs veh, UFL1 / RFU, COG3 / Fold change vs veh, COG3 / RFU, DIAPH2 / Fold change vs veh, DIAPH2 / RFU, SKA2 / Fold change vs veh, SKA2 / RFU, AFF3 / Fold change vs veh, AFF3 / RFU, LMF1 / Fold change vs veh, LMF1 / RFU, IPO11 / Fold change vs veh, IPO11 / RFU, DFFB / Fold change vs veh, DFFB / RFU, FOXP1 / Fold change vs veh, FOXP1 / RFU, CARD8 / Fold change vs veh, CARD8 / RFU, STRN3 / Fold change vs veh, STRN3 / RFU, ADK / Fold change vs veh, ADK / RFU, RASSF2 / Fold change vs veh, RASSF2 / RFU, WIPF1 / Fold change vs veh, WIPF1 / RFU, LARP1B / Fold change vs veh, LARP1B / RFU, RASA1 / Fold change vs veh, RASA1 / RFU, RB1 / Fold change vs veh, RB1 / RFU, PPFIA1 / Fold change vs veh, PPFIA1 / RFU, MAT2A / Fold change vs veh, MAT2A / RFU, CCT5 / Fold change vs veh, CCT5 / RFU, WDR92 / Fold change vs veh, WDR92 / RFU, CUX1 / Fold change vs veh, CUX1 / RFU, TTC7A / Fold change vs veh, TTC7A / RFU, TMEM135 / Fold change vs veh, TMEM135 / RFU, DEPTOR / Fold change vs veh, DEPTOR / RFU, CPM / Fold change vs veh, CPM / RFU, DNAJB6 / Fold change vs veh, DNAJB6 / RFU, CACNA2D3 / Fold change vs veh, CACNA2D3 / RFU, DTX4 / Fold change vs veh, DTX4 / RFU, TFCP2 / Fold change vs veh, TFCP2 / RFU, GMCL1 /// GMCL1P1 / Fold change vs veh, GMCL1 /// GMCL1P1 / RFU, AEBP2 / Fold change vs veh, AEBP2 / RFU, SNHG1 /// SNORD22 /// SNORD25 /// SNORD26 /// SNORD27 /// SNORD28 /// SNORD29 /// SNORD31 / Fold change vs veh, SNHG1 /// SNORD22 /// SNORD25 /// SNORD26 /// SNORD27 /// SNORD28 /// SNORD29 /// SNORD31 / Fold change (Aza/veh), C12orf56 (ProbeSet 11735607_a_at) / Fold change (ACY-1035/veh), C12orf56 (ProbeSet 11735607_a_at) / Fold change (Aza/veh), FGFR1OP (ProbeSet 11751329_s_at) / Fold change (ACY-1035/veh), FGFR1OP (ProbeSet 11751329_s_at) / Fold change (Aza/veh), VPS36 (ProbeSet 11739960_a_at) / Fold change (ACY-1035/veh), VPS36 (ProbeSet 11739960_a_at) / RFU SYPL1 (11715823_x_at) / Fold change /veh SYPL1 (11715823_x_at) / RFU IGFBP7 (11715501_s_at) / Fold change /veh IGFBP7 (11715501_s_at) / RFU REEP3 (11722064_at) / Fold change /veh REEP3 (11722064_at) / RFU IGLL1 (11728026_x_at) / Fold change /veh IGLL1 (11728026_x_at): dose or concentration left out as unconfirmed
Details: ProbeSet 11731461_x_at; LIST D

Q: With `Nc1ccc(-c2cccs2)cc1NC(=O)c1ccc2c(c1)cc(C1CC1)n2CCN1CCOCC1` [ACY-1035] as the molecule, how does the “Fold change vs veh, CPM” value read?
A: Its value is 0.83.
